Test results reported in patent US20190100534A1, “Cephem Compounds with Latent Reactive Groups” (Gladius Pharmaceuticals, Inc., priority 2017, published 2019).

What was measured:
Format in all cases: cell-based
[1] = system: Isogenic E. coli J58 strain carrying SHV-1; assay: MIC determination, isogenic E. coli strains; settings: Escherichia coli, 18 h, read-out: Mimimum Inhibitory Concentrations, SHV-1
Method in brief: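 MIC is the lowest compound concentration leaving a transparent well after overnight (18 h) incubation at 37 °C. The test strain was E. coli J53 expressing plasmid-borne SHV-1 beta-lactamase from pBC-SK(+), adjusted to 0.5 McFarland. Compounds were twofold serially diluted, starting at 64 μg/mL, in CAMH broth supplemented with 20 μM apo-transferrin.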

[2] = system: Pseudomonas aeruginosa PA-RR-(G7294437); assay: MIC determination; settings: Pseudomonas aeruginosa; PA-RR-(G7294437); CAMH broth, 20 μM Apo-Transferrin, 37° C., 18 hours; read-out: Minimum Inhibitory Concentrations, PA-RR-(G7294437)
Method in brief: (§1)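 Overnight (18 h, 37 °C) microdilution assay. Pre-grown LB cultures were brought to 0.08-0.1 OD600 in cation-adjusted Mueller-Hinton broth; wells contained 20 μM apo-transferrin and compound between 64 and 0.125 μg/mL. Lowest clear-well concentration recorded as MIC.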

[3] = system: Pseudomonas aeruginosa PA-RR-(purple Fre D); assay: MIC determination; settings: Pseudomonas aeruginosa, CAMH broth, 20 μM Apo-Transferrin, 37° C., 18 hours, read-out: Minimum Inhibitory Concentrations, PA-RR-(purple Fre D)
Method in brief: as §1

[4] = system: Pseudomonas aeruginosa PA-RR-(G8062859); assay: MIC determination; settings: Pseudomonas aeruginosa; PA-RR-(G8062859); CAMH broth, 20 μM Apo-Transferrin, 37° C., 18 hours; read-out: Minimum Inhibitory Concentrations, PA-RR-(G8062859)
Method in brief: as §1

[5] = system: Pseudomonas aeruginosa PA (URMC-2); assay: MIC determination; settings: Pseudomonas aeruginosa; PA (URMC-2); CAMH broth, 20 μM Apo-Transferrin, 37° C., 18 hours; read-out: Minimum Inhibitory Concentrations, PA (URMC-2)
Method in brief: as §1

[6] = system: Pseudomonas aeruginosa (PA); assay: MIC determination; settings: Pseudomonas aeruginosa; PA; CAMH broth, 20 μM Apo-Transferrin, 37° C., 18 hours; read-out: Minimum Inhibitory Concentrations, PA
Method in brief: as §1

[7] = system: Pseudomonas aeruginosa PA (RR-1); assay: MIC determination; settings: Pseudomonas aeruginosa; PA (RR-1); CAMH broth, 20 μM Apo-Transferrin, 37° C., 18 hours; read-out: Minimum Inhibitory Concentrations, PA (RR-1)
Method in brief: as §1

[8] = system: Isogenic E. coli J58 strain carrying CTX-M-14; assay: MIC determination, isogenic E. coli strains; settings: Escherichia coli, 18 h, read-out: Mimimum Inhibitory Concentrations, CTX-M-14
Method in brief: (§2)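 Isogenic E. coli J53 carrying plasmid-encoded CTX-M-14 or CTX-M-15 (ampicillin-selected), standardized to 0.08-0.1 OD600, incubated overnight (18 h, 37° C.) in CAMH broth plus 20 μM apo-transferrin over 2-fold compound dilutions starting at 64 μg/mL. Lowest concentration with no visible growth recorded as MIC.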

[9] = system: Isogenic E. coli J58 strain carrying CTX-M-15; assay: MIC determination, isogenic E. coli strains; settings: Escherichia coli, 18 h, read-out: Mimimum Inhibitory Concentrations, CTX-M-15
Method in brief: as §2

E. coli J53 Alone = assay: MIC determination, isogenic E. coli strains
Method in brief: (§3)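 MIC read as the lowest compound level giving a transparent well after 18 h at 37° C. Strains: parent E. coli J53 and isogenic transformants expressing plasmid-borne (pBC-SK(+)) beta-lactamases such as DHA-1; inoculum 0.5 McFarland; CAMH broth plus 20 μM apo-transferrin; compound 64 μg/mL downward, 2-fold dilutions.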

[10] = system: Isogenic E. coli J58 strain carrying DHA-1; assay: MIC determination, isogenic E. coli strains; settings: Escherichia coli, 18 h, read-out: Mimimum Inhibitory Concentrations, DHA-1
Method in brief: as §3

[11] = system: Isogenic E. coli J58 strain carrying KPC-3; assay: MIC determination, isogenic E. coli strains; settings: Escherichia coli, 18 h, read-out: Mimimum Inhibitory Concentrations, KPC-3
Method in brief: (§4)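 Strain: E. coli J53 electroporated with a pBC-SK(+) plasmid encoding the KPC enzyme, selected on ampicillin. Twofold dilutions ([…]) were made in CAMH broth containing 20 μM apo-transferrin and inoculated at 0.5 McFarland. After overnight (18 h) growth at 37 °C, MIC was read as the lowest concentration with no visible growth.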

[12] = system: Isogenic E. coli J58 strain carrying KPC-2; assay: MIC determination, isogenic E. coli strains; settings: Escherichia coli, 18 h, read-out: Mimimum Inhibitory Concentrations, KPC-2
Method in brief: as §4

[13] = system: Isogenic E. coli J58 strain carrying TEM-26; assay: MIC determination, isogenic E. coli strains; settings: Escherichia coli, 18 h, read-out: Mimimum Inhibitory Concentrations, TEM-26
Method in brief: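 E. coli J53 carried a pBC-SK(+) plasmid expressing TEM-26 β-lactamase. Compounds were serially halved from […] in CAMH broth containing 20 μM apo-transferrin, inoculated from a 0.5 McFarland culture and held overnight (18 h, 37° C); MIC read as the lowest concentration without visible growth.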

[14] = system: Isogenic E. coli J58 strain carrying VIM-2; assay: MIC determination, isogenic E. coli strains; settings: Escherichia coli, 18 h, read-out: Mimimum Inhibitory Concentrations, VIM-2
Method in brief: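 Broth microdilution in cation-adjusted Mueller-Hinton with 20 μM apo-transferrin, compound serially halved from 64 μg/mL, read by eye after 18 h at 37 °C as lowest clear well. Inoculum: VIM-2-expressing E. coli J53 (pBC-SK(+) plasmid), adjusted to 0.5 McFarland.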

[15] = system: Isogenic E. coli J58 strain carrying NDM-1; assay: MIC determination, isogenic E. coli strains; settings: Escherichia coli, 18 h, read-out: Mimimum Inhibitory Concentrations, NDM-1
Method in brief: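 Broth microdilution was run in cation-adjusted Mueller-Hinton broth supplemented with 20 μM apo-transferrin, using a 64 μg/mL top concentration diluted twofold. The inoculum was NDM-1-expressing E. coli J53 (pBC-SK(+) plasmid) at 0.5 McFarland. After overnight incubation (18 h, 37° C), the lowest compound concentration preventing visible growth was recorded as the MIC.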

[16] = system: Isogenic E. coli J58 strain carrying IMP-1; assay: MIC determination, isogenic E. coli strains; settings: Escherichia coli, 18 h, read-out: Mimimum Inhibitory Concentrations, IMP-1
Method in brief: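 Broth microdilution in cation-adjusted Mueller-Hinton broth with 20 μM apo-transferrin, compound serially diluted two-fold from 64 μg/mL, against E. coli J53 carrying plasmid-borne IMP-1. Inoculum adjusted to 0.5 McFarland; plates incubated 18 h at 37° C. MIC taken as lowest concentration giving a clear well.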

CC(C)(O/N=C(\C(=O)N[C@@H]1C(=O)N2C(C(=O)O)=C(C=Cc3ccc(C[N+](C)(C)Cc4cc(O)c(O)c(Cl)c4)cc3)CS[C@H]12)c1csc(N)n1)C(=O)O (mixture of isomers) [Compound 436, N-(4-((E/Z)-2-((6R,7R)-7-((Z)-2-(2-aminothiazol-4-yl)-2-(((2-carboxypropan-2-yl)oxy)imino)acetamido)-2-carboxy-8-oxo-5-thia-1-azabicyclo[4.2.0]oct-2-en-3-yl)vinyl)benzyl)-1-(3-chloro-4,5-dihydroxyphenyl)-N,N-dimethylmethanaminium] was tested. Which MIC [1] did it give?
Its MIC is 1 mg/L.

What about the MIC [2] of the same compound?
The MIC was 0.5 mg/L.

And the MIC [3]?
The MIC was 2 mg/L.

And the MIC [4]?
Its MIC is 5 mg/L.

What about the MIC [5] of the same compound?
Its MIC is 8 mg/L.

What about the MIC [6] of the same compound?
Its MIC is 8 mg/L.

What about the MIC [7] of the same compound?
The MIC was 2 mg/L.

What about the MIC [8] of the same compound?
Its MIC is 1 mg/L.

What about the MIC [9] of the same compound?
The MIC was 0.5 mg/L.

What about the MIC (E. coli J53 Alone; Escherichia coli, J53ALONE, 18 h, read-out: Mimimum Inhibitory Concentrations, J53 Alone) of the same compound?
The MIC was 0.13 mg/L.

What about the “Mimimum Inhibitory Concentrations, J53 Alone” value (E. coli J53 Alone; J53 Alone, Table 4-2, CAMH broth, 20 μM Apo-Transferrin, 37° C., 18 hours) of the same compound?
Its value is 0.13 microgram/mL.

What about the MIC [10] of the same compound?
The MIC was 0.25 mg/L.

What about the MIC [11] of the same compound?
Its MIC is 8 mg/L.

What about the MIC [12] of the same compound?
The MIC was 64 mg/L.

What about the MIC [13] of the same compound?
The MIC was 2 mg/L.

And the MIC [14]?
The MIC was 1 mg/L.

And the MIC [15]?
The MIC was over 64 mg/L.

What about the MIC [16] of the same compound?
The MIC was 8 mg/L.
